Data as given in patent US10813944B2, “Cyclodextrins as procoagulants” (STICHTING SANQUIN BLOEDVOORZIENING, priority 2016, dated 2020).

Tests used:
[1] = test system: VKA plasma; experiment: Thrombin generation in plasma of individuals taking vitamin K antagonists (VKA plasma); type: biochemical, human; conditions: two intensities of treatment (INR); 1 pM TF
Text: FIG. 11: Plasma was used from individuals taking vitamin K-antagonists (VKA plasma). Two different intensities of treatment (given as INR) were available, as depicted in (A) and (B). The plasmas were subjected to thrombin generation analysis as described in the Materials and Methods section with 1 pM tissue factor (TF) as initiator of coagulation.
(§1) The Calibrated Automated Thrombogram® assays the generation of thrombin in clotting plasma using a microtiter plate reading fluorometer (Fluoroskan Ascent, ThermoLab systems, Helsinki, Finland) and Thrombinoscope® software (Thrombinoscope BV, Maastricht, The Netherlands). The assay was carried out as described by Hemker et al. (Pathofysiol. IIaemost. Thromb. 2003, 33, 4-15), and the Thrombinoscope® manual. Coagulation was triggered by recalcification in the presence of 1 or 5 pM recombinant human tissue factor (Innovin®, Siemens, Marburg, Germany), 4 μM phospholipids, and 417 μM fluorogenic substrate Z-Gly-Gly-Arg-AMC (Bachem, Bubendorf, Switzerland). Fluorescence was monitored using the Fluoroskan Ascent fluorometer (ThermoLabsystems, Helsinki, Finland), and the lag time, peak thrombin, velocity index and area under the curve (ETP) were calculated using the Thrombinoscope® software (Thrombinoscope BV).

[2] = test system: plasma deficient in coagulation factor IX; experiment: Thrombin generation assay in plasma deficient in coagulation factor IX; type: biochemical, human
Procedure: as §1

[3] = test system: plasma of a hemophilia A patient containing anti-FVIII antibodies; experiment: Thrombin generation in plasma of a hemophilia A patient with anti-factor VIII antibodies; type: biochemical, human; conditions: anti-FVIII antibodies 50 BU
Procedure: FIG. 28: Effect of OKL-1111 (A), OKL-1180 (B) and OKL-1187 (C) on coagulation in plasma of a hemophilia A patient with anti-factor VIII antibodies. BU=Bethesda Units.
as §1
The patient had developed antibodies against factor VIII prior to plasma withdrawal. The plasma contained high levels of anti-FVIII antibodies (50 BU).

[4] = test system: normal human plasma pretreated with inhibitory antibodies against factor IX; experiment: Thrombin generation in normal plasma spiked with inhibitory antibodies against factor IX; type: biochemical; conditions: antibody 5F5 20 μg/ml; 1 pM TF
Procedure: as §1
(§2) Normal plasma was spiked with inhibitory antibodies against factor VIII (Sanquin, VK34, 14 μg/ml), factor IX (Sanquin, 5F5, 20 μg/ml) or factor XI (Sanquin, mix of #203 and #175, 75 μg/ml). The effect of OKL-1111 was tested in thrombin generation assay using 1 pM tissue factor (TF). This model is representative for hemophilia A, B and C patients that have developed inhibitory antibodies against plasma-derived or recombinant factor VIII or IX or XI they are treated with.

[5] = test system: plasma deficient in coagulation factor VIII; experiment: Thrombin generation assay in plasma deficient in coagulation factor VIII; type: biochemical, human
Procedure: FIG. 20: Plasma deficient in coagulation factor VIII was spiked with cyclodextrin OKL-1111 (A), OKL-1180 (B), and OKL-1187 (C) at the indicated concentrations.
as §1

[6] = test system: thrombin generation in pooled normal plasma; experiment: Calibrated Automated Thrombogram thrombin generation assay in pooled normal plasma; type: biochemical, human
[7] = test system: mice anticoagulated with rivaroxaban; experiment: In vivo saphenous vein bleeding model in mice anticoagulated with rivaroxaban; conditions: mice fed rivaroxaban for 4 days; cyclodextrin by tail vein injection 5 min before bleeding assay; OKL-1111 dose expected to give 25 μM in plasma
Procedure: FIG. 29: In vivo analysis of procoagulant potential of OK-1111 and OKL-1147. Except for controls, animals were treated with rivaroxaban for 4 days and cyclodextrins were administered 5 min prior bleeding assay.
All animal protocols were approved by the Institutional Animal Care and Use Committee of the University of North Carolina. C57BL6/J mice were purchased from Charles Rivers Laboratories (Willmington, Mass.). Bleeding studies were done essentially as previously described Pastoft et al. (Haemophilia 2012; 18:782-8). Mice were anesthetized with isoflurane throughout all procedures. The hair on the ventral side of both hind limbs was removed. The animals were placed supine on a temperature and ECG monitoring board. The paws were gently restrained by looping soft polyethylene tubing around them and attaching the tubing to the ECG board. The skin on the left and right ventral hind limb was incised which exposes a length of the saphenous neurovascular bundle; the bundle was covered with normal saline to prevent drying. To assess haemostasis, the right saphenous vein was transected by piercing it with a 23-G needle followed by a longitudinal incision made in the distal portion of the vessel. Blood was gently wicked away until haemostasis occurred. The clot was then removed to restart bleeding and the blood was again wicked away until haemostasis occurs again. Clot disruption was repeated after every incidence of haemostasis for 30 minutes. Mice were fed chow that contained 0.1 mg rivaroxaban per g of chow. The mice were on this diet for 4 days to allow them to reach a steady state. Cyclodextrins were administered by a tail vein injection 5 minutes before the start of the bleeding assay. Two parameters were measured: 1) the number of times that haemostasis occurs in a 30 minute period, and 2) the time required for each haemostasis.

[8] = test system: normal human plasma pretreated with inhibitory antibodies against factor VIII; experiment: Thrombin generation in normal plasma spiked with inhibitory antibodies against factor VIII; type: biochemical; conditions: antibody VK34 14 μg/ml; 1 pM TF
Procedure: as §1, §2

[9] = test system: human plasma deficient in coagulation factor XI; experiment: Thrombin generation assay in human plasma deficient in coagulation factor XI; type: biochemical
Procedure: as §1

[10] = normal plasma, versus absence of cyclodextrin

O=C(O)CCCCCSCC1OC2OC3C(CSCCCCCC(=O)O)OC(OC4C(CSCCCCCC(=O)O)OC(OC5C(CSCCCCCC(=O)O)OC(OC6C(CSCCCCCC(=O)O)OC(OC7C(CSCCCCCC(=O)O)OC(OC8C(CSCCCCCC(=O)O)OC(OC9C(CSCCCCCC(=O)O)OC(OC1C(O)C2O)C(O)C9O)C(O)C8O)C(O)C7O)C(O)C6O)C(O)C5O)C(O)C4O)C(O)C3O (centres unmarked) [OKL-1111]
thrombin generation in plasma of patients using vitamin K antagonists [1]: could be improved
procoagulant activity in factor IX deficient plasma [2]: stimulate coagulation significantly
thrombin generation in hemophilia A patient plasma [3]: concentration-dependently stimulated thrombin generation
thrombin generation in plasma with inhibitory antibodies against factor IX [4]: concentration-dependently stimulated thrombin generation
procoagulant effect in factor VIII deficient plasma [5]: stimulate coagulation significantly
procoagulant effect in normal plasma ([6]; no anticoagulant, cyclodextrin 100 μM unless otherwise indicated, 1 pM TF): very strong procoagulant effects
lag time [6, 10]: considerably shorter
peak thrombin [6, 10]: largely increased
clotting times [7]: normalization of the clotting times
thrombin generation in plasma with inhibitory antibodies against factor VIII [8]: concentration-dependently stimulated thrombin generation
stimulation of coagulation in factor XI deficient plasma [9]: stimulate coagulation significantly
